In brackets after ≈: the same amount, converted by molar mass.
Legend:
mPTP [1] = test: mPTP activity assay in isolated rat liver mitochondria (Ca2+ retention, Fluo5N, FLIPR); assay type: biochemical; details: isolated rat liver mitochondria; average value from multiple experiments (n ≥ 2)
In short: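 Freshly isolated female Sprague Dawley rat liver mitochondria in pH 7.4 buffer with 10 mM succinate, 1 μM rotenone and 2 μM Fluo5N, preincubated 10 min at RT with compound (30 μM to 1 nM). CaCl2 bolus (75 μM) added; IC50 from 10 min fluorescence, normalised to DMSO and 5 μM cyclosporin A.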

mPTP [2] = test: mPTP human platelet mitochondria membrane potential flow cytometry assay; assay type: cell-based; details: stimulated human platelets
Method: The mPTP cell based assay was performed using a mitochondria membrane potential flow cytometry assay in stimulated human platelets. Simulation of platelets results in the rapid influx of Ca^2+ across the platelet membrane. The Ca^2+ is then sequestered by mitochondria until the threshold for mPTP opening is reached, at which point the pore opens and the mitochondrial membrane potential is dissipated. Changes in mitochondria membrane potential due to mPTP opening can be quantified in live platelets using standard mitochondrial membrane potential dyes e.g. 3,3′-dihexyloxacarbocyanine Iodide; DiOC6 (3), enabling pharmacological characterisation of mPTP inhibitors.
Fresh human blood (20 ml) was collected from consented donors into 3.2% sodium citrate. Platelets were isolated by centrifugation at 200 g for 20 min at room temperature, then the platelet rich plasma layer transferred to a fresh tube. Prostaglandin 12 is added to the platelets at a final concentration of 20 ng/ml. After centrifugation at 640 g for 10 min, the platelet rich pellet was resuspended in 4 ml HEPES assay buffer (137 mM NaCl, 2.7 mM KCl, 11.9 mM NaHCO3, 0.42 mM NaH2PO4, 1 mM MgCl2, 5.5 mM glucose, 0.1% bovine serum albumin, 10 mM HEPES adjusted to pH 7.4) and stored on ice.
Test compounds were prepared from 10 mM stocks in DMSO and serially diluted in assay buffer containing 0.4% DMSO and 25 μl transferred into a 96 well plate. Platelets were loaded with the mitochondrial membrane potential dye DiOC6 (3) (3,3′-dihexyloxacarbocyanine Iodide; Invitrogen) at 200 nM for 30 min, then 50 μl plated into each well of the 96 well plate containing diluted test compound and incubated for 15 min. Control wells included DMSO (0.1% final concentration) only or 5 μM cyclosporin A. Platelets were then stimulation with the addition of assay buffer (25 μl) containing CaCl2, alpha thrombin and Convulxin to achieve a final concentrations of 2 mM, 0.017 U/ml and 0.167 μg/ml respectively and incubated for 14 min. The reaction was stopped by the addition of 25 μl 15 mM EDTA in assay buffer. The mitochondrial membrane potential across the population of platelets in each well was then quantified by flow cytometry using a Guava easyCyte 5 Benchtop Flow Cytometer with 3000 events per well. The percentage of platelets with a depolarised mitochondrial membrane potential was calculated for each well. A pIC50 for each compound was then calculated using a standard four parameter curve fit model (GraphPad Prism).

PBS solubility = assay type: physicochemical; details: aqueous buffer, kinetic from dmso stock; PBS pH 7.4, 2 hr at 25° C.
In short: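 Compound from 10 mM DMSO stock was added in duplicate to FaSSIF or PBS (pH 7.4) and shaken at 1100 rpm for 2 hr at 25 °C. After filtration, the filtrate was quantified by LC-MS/MS with internal standard against a standard of known concentration.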

[3] = Microsomal clearance assay, rat liver microsomes; assay type: in vitro ADME; details: average value from two experiments, read-out: Rat liver microsomes intrinsic clearance (CLint)
Method: The microsomal stability of test compounds was evaluated using rat liver microsomes (BioIVT) with and without the cofactors nicotinamide adenine dinucleotide phosphate (NADPH) and uridine-diphosphate-glucuronic acid (UDPGA). Reactions were performed in a final volume of 250 μl pre-warmed (37° C.) 100 mM phosphate buffer containing 5 mM MgCl2, 0.025 mg/ml alamethicin, and 0.5 mg/ml rat liver microsomes. NADPH and UDPGA were included at 1 mM and 2 mM respectively, where appropriate. Reactions were started with the addition of 1 μM (final concentration) test compound. Verapamil was used as the positive control. Solutions were incubated in a water bath at 37° C. and aliquots collected at 0.5, 5, 15, 30 and 60 min. Reactions were stopped by the addition of 5 volumes of cold acetonitrile with internal standards (200 nM caffeine and 100 nM tolbutamide). Samples were centrifuged at 3220 g for 40 min. An aliquot of supernatant was diluted 1:1 In ultra-pure H20, then used for LC-MS/MS analysis. Peak areas were determined from extracted ion chromatograms. The slope value, k, was determined by linear regression of the natural logarithm of the remaining percentage of the parent drug vs. incubation time curve. The in vitro half-life (in vitro t1/2) was determined from the slope value: in vitro t1/2=0.693/k. Conversion of the in vitro t1/2 (min) into the in vitro intrinsic clearance (in vitro CLint, in μL/min/mg protein) was done using the following equation (mean of duplicate determinations): in vitro Clint=(0.693/t1/2)*(Vol of incubation (μl)/amount of protein (mg)).

mPTP [4] = test: mPTP activity assay in isolated rat brain mitochondria; assay type: biochemical; details: isolated rat brain mitochondria
Method: MPTP activity was measured in brain mitochondria freshly isolated from female Sprague Dawley (250 to 300 gram) rats. Anaesthetised rats were perfused in-situ with ˜40 ml cold Dulbecco's Phosphate Buffered Saline (DPBS), then brains dissected and transferred into 30 ml Isolation Buffer (225 mM mannitol, 75 mM sucrose, 1 mM EGTA, adjusted to pH 7.4 with 1 M NaOH). The brain was minced using tweezers and a scalpel into ˜5 mm pieces then transferred into a 50 ml Potterton Dounce homogenization tube on ice containing 10 ml ice-cold isolation buffer (as above with addition of Complete Protease inhibitor; 1 tablet per 50 ml buffer). Homogenisation was carried out using a teflon pestle at 1800 rpm. The slurry was centrifuged at 2000 g for 10 min at 4° C., then the supernatant centrifuged at 12,000 g for 9 min. The pellet was resuspended with a dounce homogeniser in isolation buffer as above but with the addition of 0.02% digitonin, centrifuged at 12,000 g for 11 min and finally resuspended in 5 ml modified isolation buffer (as above but with EGTA reduced to 0.1 mM).
Test compounds were prepared in 384 well polypropylene assay plates as described above for the liver mitochondria assay. A stock mitochondria/Fluo5N assay solution was prepared in 5.6 ml assay buffer (120 mM mannitol, 40 mM MOPS, 5 mM KH2PO4, 60 mM KCl, 10 mM pyruvate, 2 mM malate, 2 mM MgCl2, 20 μM ADP, 1.26 μM oligomycin A, adjusted to pH 7.4) supplemented with Fluo5N pentapotassium salt (2 μM) and 1 ml mitochondria suspension, then transferred (15 μl) into the assay plate containing test compounds and incubated for 10 min at RT. Assay plates were then transferred to a FLIPR Tetra plate reader (Molecular Devices). Dye fluorescence was then measured every 3 sec for a total of 10 min. After 12 sec, a 2.5 μl bolus of Ca2+(75 μM) was added from a source plate containing 675 μM CaCl2 in FLIPR assay buffer. IC50 values for test compounds were calculated using the fluorescence value collected at the 10 min timepoint with % inhibition calculated using the DMSO control and cyclosporin A values at […].

Compound | mPTP Rat liver pIC50* (mPTP [1]) | mPTP Human platelets pIC50 (mPTP [2]) | solubility at 2 h (PBS solubility) [µM] | microsomal CLint at 1 µM [3] [µL/min/mg] | mPTP Rat brain pIC50 (mPTP [4])
O=C(/C=C/c1ccc2cn[nH]c2c1)NC1CCc2ccc(F)cc21 (stereo not shown) [Example 6, (E)-N-(6-fluoro-2,3-dihydro-1H-inden-1-yl)-3-(1H-indazol-6-yl)acrylamide] | 6.0 | 4.9 | 9.1 (≈ 2.92 µg/mL) | 59 | –
Cc1c(F)cccc1NC(=O)/C=C/c1ccc2cn[nH]c2c1 [Comparative Example 1, (E)-N-(2-methyl-3-fluorophenyl)-3-(1H-indazol-6-yl)acrylamide, reference compound] | 8.0 | 6.9 | – | – | 7.6

— patent US12497359B2, “Acrylamide derivatives” (NRG Therapeutics Ltd, priority 2020, dated 2025)
